Patent publication US20240124412A1, “IKAROS ZINC FINGER FAMILY DEGRADERS AND USES THEREOF” (Gilead Sciences, Inc., priority 2021, published 2024)
Like-named read-outs stand apart in the source and are kept apart here.

How the values were obtained:
IKZF1 = target: T1, IKZF1 (Homo sapiens, UniProt Q13422+Q96SW2); assay: HiBiT protein tagging assay, in vitro IKZF1 degradation (HEK293); type: cell-based; details: for Dmax: read-out: IKZF1 Dmax (maximum degradation at the highest concentration tested)
T1 construct: expressed in transfected cells
Procedure, shortened: (§1)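 Flp-In T-REx HEK293 pools stably expressing C-terminal HiBiT-tagged IKZF1 or IKZF2 were induced overnight with 1 μg/ml doxycycline. Cells were then treated with serially diluted compound for 18-24 hr at 37 °C and read by Nano-Glo lytic luminescence. Data were normalized to 0.5% DMSO as POC; EC50 and Dmax (maximum degradation at highest concentration tested) reported.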

IKZF2 = target: T2, IKZF2 (Homo sapiens, UniProt Q96SW2+Q9UKS7); assay: HiBiT protein tagging assay, in vitro IKZF2 degradation (HEK293); type: cell-based
T2 construct: expressed in transfected cells
Procedure, shortened: as §1

[1] = HEK293, 18-24 hr incubation, normalized to DMSO control
[2] = HEK293, 18-24 hr incubation, normalized to DMSO control, read-out: IKZF1 EC50
[3] = HEK293, HiBiT assay, HEK293, 18-24 hr incubation, normalized to DMSO control; read-out: IKZF2 Dmax (maximum degradation at the highest concentration tested)
[4] = HiBiT assay, HEK293, 18-24 hr incubation, normalized to DMSO control; read-out: IKZF2 EC50

T2 sequence (Q9UKS7 1-500 isoform Q9UKS7-2): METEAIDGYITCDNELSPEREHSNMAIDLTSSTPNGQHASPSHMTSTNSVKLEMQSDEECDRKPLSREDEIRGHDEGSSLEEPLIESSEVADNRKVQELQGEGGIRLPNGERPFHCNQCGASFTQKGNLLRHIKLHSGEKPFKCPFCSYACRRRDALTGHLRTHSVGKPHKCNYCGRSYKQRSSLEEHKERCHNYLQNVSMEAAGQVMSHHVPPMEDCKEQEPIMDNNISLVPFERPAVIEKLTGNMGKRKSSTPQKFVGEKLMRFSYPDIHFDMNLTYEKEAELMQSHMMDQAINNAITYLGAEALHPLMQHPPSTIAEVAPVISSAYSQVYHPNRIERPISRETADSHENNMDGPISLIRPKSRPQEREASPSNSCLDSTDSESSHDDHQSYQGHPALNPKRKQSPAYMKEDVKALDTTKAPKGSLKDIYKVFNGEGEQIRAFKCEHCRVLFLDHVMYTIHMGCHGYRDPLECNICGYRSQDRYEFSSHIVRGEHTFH
T2 sequence (Q96SW2 whole entry): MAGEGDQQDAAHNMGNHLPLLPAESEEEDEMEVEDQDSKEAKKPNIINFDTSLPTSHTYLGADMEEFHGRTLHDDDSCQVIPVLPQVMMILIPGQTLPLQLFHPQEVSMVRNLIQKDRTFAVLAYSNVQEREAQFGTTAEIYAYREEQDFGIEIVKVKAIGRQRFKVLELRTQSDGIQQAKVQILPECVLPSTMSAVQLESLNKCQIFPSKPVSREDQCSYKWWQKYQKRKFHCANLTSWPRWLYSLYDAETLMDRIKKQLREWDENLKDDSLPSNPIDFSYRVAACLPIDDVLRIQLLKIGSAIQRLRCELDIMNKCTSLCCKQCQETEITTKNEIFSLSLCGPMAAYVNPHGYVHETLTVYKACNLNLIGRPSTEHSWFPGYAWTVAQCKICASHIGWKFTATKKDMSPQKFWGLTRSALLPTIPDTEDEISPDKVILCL
T2 sequence (Q16531 whole entry partner): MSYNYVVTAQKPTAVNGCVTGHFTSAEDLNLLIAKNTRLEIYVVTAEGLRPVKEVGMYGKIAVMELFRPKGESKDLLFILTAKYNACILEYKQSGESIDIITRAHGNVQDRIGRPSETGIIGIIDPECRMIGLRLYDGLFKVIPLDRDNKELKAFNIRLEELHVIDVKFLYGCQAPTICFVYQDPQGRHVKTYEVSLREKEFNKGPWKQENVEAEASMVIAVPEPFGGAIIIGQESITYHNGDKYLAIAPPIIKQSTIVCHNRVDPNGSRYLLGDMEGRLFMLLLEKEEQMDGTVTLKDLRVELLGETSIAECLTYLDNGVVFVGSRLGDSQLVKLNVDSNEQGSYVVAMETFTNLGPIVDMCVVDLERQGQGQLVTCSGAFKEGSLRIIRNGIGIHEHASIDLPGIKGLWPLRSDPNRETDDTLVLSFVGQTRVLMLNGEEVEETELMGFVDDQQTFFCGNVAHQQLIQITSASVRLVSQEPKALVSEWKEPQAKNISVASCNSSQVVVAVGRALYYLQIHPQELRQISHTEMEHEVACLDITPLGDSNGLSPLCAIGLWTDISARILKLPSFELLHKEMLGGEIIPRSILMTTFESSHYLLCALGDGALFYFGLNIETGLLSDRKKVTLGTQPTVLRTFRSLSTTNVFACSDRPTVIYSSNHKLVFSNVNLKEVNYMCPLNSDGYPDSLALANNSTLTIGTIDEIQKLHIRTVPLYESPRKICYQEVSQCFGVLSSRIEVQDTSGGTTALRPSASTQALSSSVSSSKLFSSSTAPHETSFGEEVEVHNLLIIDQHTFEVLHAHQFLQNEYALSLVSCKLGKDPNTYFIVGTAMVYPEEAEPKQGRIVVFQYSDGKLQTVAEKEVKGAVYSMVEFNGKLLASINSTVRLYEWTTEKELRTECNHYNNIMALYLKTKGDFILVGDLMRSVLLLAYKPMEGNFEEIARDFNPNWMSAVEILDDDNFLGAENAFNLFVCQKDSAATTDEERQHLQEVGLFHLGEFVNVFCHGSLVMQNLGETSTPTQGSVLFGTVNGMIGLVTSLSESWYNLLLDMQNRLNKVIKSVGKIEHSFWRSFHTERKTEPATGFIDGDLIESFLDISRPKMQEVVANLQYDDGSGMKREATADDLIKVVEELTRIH
T1 sequence (Q13422 whole entry): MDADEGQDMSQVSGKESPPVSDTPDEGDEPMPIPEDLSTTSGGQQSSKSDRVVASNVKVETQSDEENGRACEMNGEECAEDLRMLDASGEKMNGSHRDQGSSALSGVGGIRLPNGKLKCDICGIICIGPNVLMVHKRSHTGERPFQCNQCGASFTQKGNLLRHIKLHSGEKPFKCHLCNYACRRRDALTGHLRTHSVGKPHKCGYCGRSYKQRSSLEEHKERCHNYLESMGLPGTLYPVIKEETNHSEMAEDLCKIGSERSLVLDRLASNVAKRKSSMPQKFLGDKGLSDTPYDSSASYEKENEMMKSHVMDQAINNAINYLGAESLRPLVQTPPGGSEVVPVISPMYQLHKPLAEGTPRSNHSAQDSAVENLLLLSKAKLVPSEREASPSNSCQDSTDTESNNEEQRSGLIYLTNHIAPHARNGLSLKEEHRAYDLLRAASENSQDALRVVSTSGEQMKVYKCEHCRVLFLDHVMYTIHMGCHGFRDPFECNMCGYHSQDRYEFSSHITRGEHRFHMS
T1 sequence (Q96SW2 whole entry): as the sequence (Q96SW2 whole entry) above
T1 sequence (Q16531 whole entry partner): as the sequence (Q16531 whole entry partner) above

SMILES	Dmax (IKZF1; [1])	DC50 (IKZF1; [2])	Dmax (IKZF2; [3])	DC50 (IKZF2; [4])	DC50 (IKZF1; read-out: IKZF1 EC50, HEK293, 18-24 hr incubation, normalized to DMSO control)	DC50 (IKZF2; read-out: IKZF2 EC50; HiBiT assay, HEK293, 18-24 hr incubation, normalized to DMSO control)
CO[C@@H]1CCCC[C@@H]1NCc1ccc2c(c1)CN(C1CCC(=O)NC1=O)C2=O (some centres unmarked) [Example 108]	89%	0.026 µM	96%	0.016 µM		
C[C@H](c1ccccc1)N1CCC[C@@H](NCc2ccc3c(c2)CN(C2CCC(=O)NC2=O)C3=O)C1 (stereo partly drawn) [Example 28, 3-(1-oxo-5-((((R)-1-((R)-1-phenylethyl)piperidin-3-yl)amino)methyl)isoindolin-2-yl)piperidine-2,6-dione]	94%	0.005 µM	93%	0.029 µM		
O=C1CCC(N2Cc3cc(CNC4CCCC4)ccc3C2=O)C(=O)N1 (centres unmarked) [Example 8]	26%	0.131 µM	55%	0.143 µM		
O=C1CCC(N2Cc3cc(CNC4CCC5(CC4)COC5)ccc3C2=O)C(=O)N1 (centres unmarked) [Example 60]	55%	0.403 µM	84%	0.401 µM		
C[C@@H]1CC[C@@H](NCc2ccc3c(c2)CN(C2CCC(=O)NC2=O)C3=O)CN1Cc1ccccc1 (stereo partly drawn) [Example 138, 3-(5-((((3R,6R)-1-benzyl-6-methylpiperidin-3-yl)amino)methyl)-1-oxoisoindolin-2-yl)piperidine-2,6-dione]	92%	0.027 µM	83%	0.189 µM		
O=C1CCC(N2Cc3cc(CNC45CCCC(O)(C4)C5)ccc3C2=O)C(=O)N1 (centres unmarked) [Example 143]		> 1 µM	66%	0.243 µM		
C[C@@H](c1ccccc1)N1CCC[C@@H](NCc2ccc3c(c2)CN(C2CCC(=O)NC2=O)C3=O)C1 (stereo partly drawn) [Example 27, 3-(1-oxo-5-((((R)-1-((S)-1-phenylethyl)piperidin-3-yl)amino)methyl)isoindolin-2-yl)piperidine-2,6-dione]	94%	0.009 µM	93%	0.041 µM		
C[C@H]1CC[C@H](NCc2ccc3c(c2)CN(C2CCC(=O)NC2=O)C3=O)CC1 (some centres unmarked) [Example 47]	41%	0.189 µM	82%	0.182 µM		
O=C1CCC(N2Cc3cc(CN[C@H]4CC[C@H](C(F)(F)F)CC4)ccc3C2=O)C(=O)N1 (some centres unmarked) [Example 77]	59%	0.144 µM	74%	0.171 µM		
C[C@H]1CC[C@@H](NCc2ccc3c(c2)CN(C2CCC(=O)NC2=O)C3=O)CC1 (some centres unmarked) [Example 89]	42%	0.127 µM	76%	0.139 µM		
C[C@@H](NCc1ccc2c(c1)CN(C1CCC(=O)NC1=O)C2=O)c1ccccc1 (stereo partly drawn) [Example 16, 3-(1-oxo-5-((((R)-1-phenylethyl)amino)methyl)isoindolin-2-yl)piperidine-2,6-dione]	71%	0.041 µM	54%	0.26 µM		
O=C1CCC(N2Cc3cc(CN[C@@H]4C[C@H](F)CN(Cc5ccccc5)C4)ccc3C2=O)C(=O)N1 (some centres unmarked) [Example 45]	93%	0.03 µM	84%	0.182 µM		
C[C@@H]1CCCC[C@@H]1NCc1ccc2c(c1)CN(C1CCC(=O)NC1=O)C2=O (some centres unmarked) [Example 46]	36%	0.275 µM	76%	0.141 µM		
CC[C@@H]1CCCC[C@H]1NCc1ccc2c(c1)CN(C1CCC(=O)NC1=O)C2=O (some centres unmarked) [Example 149]		> 1 µM	35%	0.115 µM		
O=C1CCC(N2Cc3cc(CN[C@@H]4CCC[C@H](OCc5ccccc5)C4)ccc3C2=O)C(=O)N1 (some centres unmarked) [Example 112]	95%	0.007 µM	90%	0.075 µM		
O=C1CCC(N2Cc3cc(CN[C@@H]4CCCC[C@@H]4Cc4ccccc4)ccc3C2=O)C(=O)N1 (some centres unmarked) [Example 68]	68%	0.07 µM	68%	0.154 µM		
O=C1CCC(N2Cc3cc(CNC4CCC5(CCOCC5)CC4)ccc3C2=O)C(=O)N1 (centres unmarked) [Example 88]	64%	0.297 µM	91%	0.296 µM		
O=C1CCC(N2Cc3cc(CNC4CC5CCC(C5)C4)ccc3C2=O)C(=O)N1 (centres unmarked) [Example 105]	75%	0.074 µM	92%	0.043 µM		

SMILES	Dmax (IKZF1; [1])	DC50 (IKZF1; [2])	Dmax (IKZF2; [3])	DC50 (IKZF2; [4])	DC50 (IKZF1; read-out: IKZF1 EC50, HEK293, 18-24 hr incubation, normalized to DMSO control)	DC50 (IKZF2; read-out: IKZF2 EC50; HiBiT assay, HEK293, 18-24 hr incubation, normalized to DMSO control)
O=C1CCC(N2Cc3cc(CNC4CCCC5(CC5)C4)ccc3C2=O)C(=O)N1 (centres unmarked) [Example 132]	58%	0.146 µM	84%	0.097 µM		
O=C1CCC(N2Cc3cc(CNC4CCC5(CCCC5)CC4)ccc3C2=O)C(=O)N1 (centres unmarked) [Example 84]	55%	0.064 µM	79%	0.046 µM		
O=C1CCC(N2Cc3cc(CNCC4CCc5ccccc5C4)ccc3C2=O)C(=O)N1 (centres unmarked) [Example 23, 3-(1-oxo-5-((((1,2,3,4-tetrahydronaphthalen-2-yl)methyl)amino)methyl)isoindolin-2-yl)piperidine-2,6-dione]	86%	0.036 µM	49%	0.21 µM		
O=C1CCC(N2Cc3cc(CNC45CCC(CO)(CC4)C5)ccc3C2=O)C(=O)N1 (centres unmarked) [Example 142]	26%	0.374 µM	99%	0.218 µM		
COCC1(NCc2ccc3c(c2)CN(C2CCC(=O)NC2=O)C3=O)CCCCC1 (centres unmarked) [Example 154, 3-(5-(((1-(methoxymethyl)cyclohexyl)amino)methyl)-1-oxoisoindolin-2-yl)piperidine-2,6-dione]		> 1 µM	47%	0.293 µM		
O=C1CCC(N2Cc3cc(CNC4(c5ccc(F)cc5)CCCCC4)ccc3C2=O)C(=O)N1 (centres unmarked) [Example 153, 3-(5-(((1-(4-fluorophenyl)cyclohexyl)amino)methyl)-1-oxoisoindolin-2-yl)piperidine-2,6-dione]			36%		> 1 µM	0.122 µM
O=C1CCC(N2Cc3cc(CN[C@H]4CC[C@H](c5ccccc5)CC4)ccc3C2=O)C(=O)N1 (stereo partly drawn) [Example 32, 3-(1-oxo-5-((((1,4-trans)-4-phenylcyclohexyl)amino)methyl)isoindolin-2-yl)piperidine-2,6-dione]	48%	0.054 µM	85%	0.071 µM		
CC1(NCc2ccc3c(c2)CN(C2CCC(=O)NC2=O)C3=O)CCCC1 (centres unmarked) [Example 151, 3-(5-(((1-methylcyclopentyl)amino)methyl)-1-oxoisoindolin-2-yl)piperidine-2,6-dione]	26%	0.172 µM	81%	0.151 µM		
C[C@H](CO)NCc1ccc2c(c1)CN(C1CCC(=O)NC1=O)C2=O (stereo partly drawn) [Example 51, 3-[5-[[[(1R)-2-hydroxy-1-methyl-ethyl]amino]methyl]-1-oxo-isoindolin-2-yl]piperidine-2,6-dione]	36%	0.263 µM	17%	1.2 µM		
O=C1CCC(N2Cc3cc(CN[C@H]4CCC[C@@H]4NCc4ccccc4)ccc3C2=O)C(=O)N1 (stereo partly drawn) [Example 157, 3-(5-((((1S,2S)-2-(benzylamino)cyclopentyl)amino)methyl)-1-oxoisoindolin-2-yl)piperidine-2,6-dione]	66%	0.131 µM	43%	0.443 µM		
O=C1CCC(N2Cc3cc(CN[C@@H]4CCCN(Cc5cccnc5)C4)ccc3C2=O)C(=O)N1 (stereo partly drawn) [Example 124, 3-(1-oxo-5-((((R)-1-(pyridin-3-ylmethyl)piperidin-3-yl)amino)methyl)isoindolin-2-yl)piperidine-2,6-dione]	96%	0.115 µM	96%	0.318 µM		
O=C1CCC(N2Cc3cc(CN[C@@H]4CCC[C@H](Cc5ccccc5Cl)C4)ccc3C2=O)C(=O)N1 (some centres unmarked) [Example 137]	95%	0.003 µM	96%	0.008 µM		
CO[C@H]1CCCC[C@H]1NCc1ccc2c(c1)CN(C1CCC(=O)NC1=O)C2=O (some centres unmarked) [Example 107]	38%	0.158 µM	28%	0.265 µM		
CCCO[C@H]1CC[C@H](NCc2ccc3c(c2)CN(C2CCC(=O)NC2=O)C3=O)CC1 (some centres unmarked) [Example 75]	49%	0.127 µM	90%	0.1 µM		
O=C1CCC(N2Cc3cc(CNCc4ccccc4)ccc3C2=O)C(=O)N1 (centres unmarked) [Example 33, 3-(5-((benzylamino)methyl)-1-oxoisoindolin-2-yl)piperidine-2,6-dione]	75%	0.035 µM	27%	0.264 µM		
CC1(NCc2ccc3c(c2)CN(C2CCC(=O)NC2=O)C3=O)CCCCC1 (centres unmarked) [Example 113]	27%	0.096 µM	95%	0.049 µM		
O=C1CCC(N2Cc3cc(CNC4CCN(C(=O)NCc5ccccc5)CC4)ccc3C2=O)C(=O)N1 (centres unmarked) [Example 4, N-benzyl-4-(((2-(2,6-dioxopiperidin-3-yl)-1-oxoisoindolin-5-yl)methyl)amino)piperidine-1-carboxamide]	95%	0.068 µM	95%	1.7 µM		
O=C1CCC(N2Cc3cc(CN[C@@H]4CCCC[C@H]4OCc4ccccc4Cl)ccc3C2=O)C(=O)N1 (some centres unmarked) [Example 145]	31%	0.246 µM	92%	0.078 µM		
